According to US9051579B2, “Herbicide-tolerant plants through bypassing metabolic pathway” (Bayer S.A.S., priority 2000, dated 2015):

What was measured:
HPP oxidase (HPPO) = test: HPP oxidase activity assay (colorimetric / HPLC), influence of added compounds; assay type: biochemical, Arthrobacter globiformis; details: 115 ppm
Description: The enzyme reaction is stopped by adding 2,4-dinitrophenylhydrazine (2,4-DNPH), in solution in 2 M HCl. The 2, 4-DNPH reacts with the ketone function in the alpha position of a carboxylic function (example: HPP). […] When the HPP is completely converted to 4-HPA during the enzyme reaction, the hydrazone cannot form, and the characteristic yellow color of 2,4-DHPA is therefore obtained in basic medium. If the HPP is not completely converted to 4-HPA during the enzyme reaction, the formation of hydrazone is possible. These hydrazones are brown in color in basic medium. A variation in color between these two extremes is obtained as a function of the amount of HPP consumed. The absorption measurements are carried out at 445 or 450 nm. In order to make this assay more easy to handle, we adapted it to the 96-well microplate format. The reaction mixture comprises GSH (900 μM); HPP (135 μM); TPP (1.8 mM); MgCl2 (4.5 mM); FAD (4 μM); potassium phosphate buffer (90 mM) pH 7.4. The mixture is kept on ice. 50 μL of the test fraction and 150 μL of reaction mixture are placed in each well. After 20 min at 30° C., the enzyme reaction is stopped with 13 μL of 2,4-DNPH solution (0.1% in 2 M HCl). The mixture is left to react for 20 min at ambient temperature. […] To prepare the standard range, reaction mixtures with varying concentrations of HPP are prepared. […]

Arabidopsis seeds = test: Germination of Arabidopsis seeds on MS medium with DKN, with or without homogentisate; assay type: in vivo
Description: 1 Murashige and Skoog medium (T. Murashige and F. Skoog, 1962. A revised medium for a rapid growth and bioassays with tobacco tissue culture. Physiol. Plant. 15, 473-479), control experiment for germination
2 MS medium plus DKN at a dose of 1 ppm
3 MS medium plus DKN at the same dose+homogentisate at a concentration of 5 mM.

[1] = medium 2: MS medium plus DKN at 1 ppm

| SMILES | inhibition of the HPPO (HPP oxidase (HPPO)) | germination and pigmentation of the plantlet (Arabidopsis seeds; [1]) | survival of the plantlets (Arabidopsis seeds; [1]) | germination and pigmentation of the plantlet (Arabidopsis seeds; medium 3: MS medium plus DKN 1 ppm + homogentisate 5 mM) | later development of the plants (Arabidopsis seeds; medium 3: MS medium plus DKN 1 ppm + homogentisate 5 mM, as homogentisate in the medium decreases) |
| --- | --- | --- | --- | --- | --- |
| CC(C)C1(C)N=C(c2ncccc2C(=O)O)NC1=O (centres unmarked) [imazapyr] | not inhibited |  |  |  |  |
| CS(=O)(=O)c1cc(C(F)(F)F)ccc1C(=O)C(C#N)C(=O)C1CC1 (centres unmarked) [DKN] |  | germination occurs, but the plantlet which emerges is white, the two cotyledons exhibiting no pigmentation | die in a few days | germination occurs normally, the cotyledons are clearly green | the first symptoms of bleaching appear and plant growth stops, they end up dying |
